# Measurements reported in US10463671B2, “Combination therapy for treating cancer” (Epizyme, Inc., priority 2013, dated 2019).
# Key:
# [1] = tested on: glucocorticoid signaling genes in OCI-LY19 cells; assay: RT2 Glucocorticoid Signaling PCR array; type: cell-based; conditions: compared to DMSO; OCI cell line; 4 days
# [2] = tested on: glucocorticoid signaling genes in DOHH2 cells; assay: RT2 Glucocorticoid Signaling PCR array; type: cell-based; conditions: vs DMSO; DOHH2, 4 days
# [3] = tested on: glucocorticoid signaling genes in SU-DHL10 cells; assay: RT2 Glucocorticoid Signaling PCR array; type: cell-based; set-up: IL10 Ct Values / TNF Ct Values: unit not given here; conditions: SUDHL10, 4 days
# [4] = tested on: WSU-DLCL2 cells; assay: Medium throughput combination proliferation assay (CellTiter-Glo, Chou-Talalay CI / potency shift)
smiles,measurement,setting,value
CCN(c1cc(-c2ccc(CN3CCOCC3)cc2)cc(C(=O)NCc2c(C)cc(C)[nH]c2=O)c1C)C1CCOCC1 [Compound 44],"ΔΔCT, ADARB1",[1],−0.788
same,"ΔΔCT, ARID5B",[1],0.231
same,"ΔΔCT, PDCD7",[1],0.024
same,"ΔΔCT, SPHK1",[1],0.018
same,FKBP5 ΔΔCT,[2],−0.032
same,SPSB1 ΔΔCT,[2],−0.025
same,ACTB Ct Values,[3],14.828
same,ADARB1 Ct Values,[3],31.215
same,AFF1 Ct Values,[3],29.849
same,AK2 Ct Values,[3],20.974
same,AMPD3 Ct Values,[3],27.654
same,ANGPTL4 Ct Values,[3],32.107
same,ANXA4 Ct Values,[3],24.961
same,ARID5B Ct Values,[3],28.208
same,ASPH Ct Values,[3],23.837
same,ATF4 Ct Values,[3],20.607
same,B2M Ct Values,[3],19.147
same,BCL6 Ct Values,[3],22.639
same,CEBPA Ct Values,[3],28.900
same,CEBPB Ct Values,[3],26.624
same,CREB1 Ct Values,[3],23.809
same,CREB3 Ct Values,[3],26.452
same,CREB3L4 Ct Values,[3],26.139
same,CYB561 Ct Values,[3],37.004
same,DDIT4 Ct Values,[3],26.109
same,DUSP1 Ct Values,[3],31.300
same,EHD3 Ct Values,[3],26.768
same,FKBP5 Ct Values,[3],22.883
same,FOSL2 Ct Values,[3],32.931
same,GAPDH Ct Values,[3],17.793
same,GDPD1 Ct Values,[3],30.943
same,GOT1 Ct Values,[3],25.306
same,H6PD Ct Values,[3],28.126
same,HNRPLL Ct Values,[3],23.764
same,HPRT1 Ct Values,[3],20.615
same,IL1RN Ct Values,[3],32.182
same,IL6R Ct Values,[3],33.807
same,IL10 Ct Values,[3],32.505
same,KLF9 Ct Values,[3],32.525
same,KLF13 Ct Values,[3],24.536
same,LOX Ct Values,[3],35.385
same,MERTK Ct Values,[3],34.652
same,MT2A Ct Values,[3],37.225
same,NFKBIA Ct Values,[3],23.654
same,NR3C1 Ct Values,[3],23.754
same,PDCD7 Ct Values,[3],25.123
same,PDP1 Ct Values,[3],26.175
same,PER1 Ct Values,[3],27.710
same,PER2 Ct Values,[3],24.780
same,PIK3R1 Ct Values,[3],24.661
same,PLEKHF1 Ct Values,[3],28.979
same,POU2F1 Ct Values,[3],25.842
same,POU2F2 Ct Values,[3],25.098
same,RASA3 Ct Values,[3],24.277
same,RGS2 Ct Values,[3],25.587
same,RHOB Ct Values,[3],27.829
same,RHOJ Ct Values,[3],36.530
same,RPLP0 Ct Values,[3],16.821
same,SESN1 Ct Values,[3],27.480
same,SGK1 Ct Values,[3],25.358
same,SLC10A6 Ct Values,[3],37.060
same,SLC19A2 Ct Values,[3],30.597
same,SLC22A5 Ct Values,[3],30.263
same,SNTA1 Ct Values,[3],27.003
same,SPHK1 Ct Values,[3],27.804
same,SPSB1 Ct Values,[3],26.133
same,STAT5A Ct Values,[3],25.275
same,STAT5B Ct Values,[3],24.281
same,TBL1XR1 Ct Values,[3],21.846
same,TNF Ct Values,[3],23.725
same,TNFAIP3 Ct Values,[3],27.677
same,TSC22D3 Ct Values,[3],28.871
same,USP2 Ct Values,[3],23.434
same,USP54 Ct Values,[3],27.789
same,VDR Ct Values,[3],29.514
same,VLDLR Ct Values,[3],32.904
same,ZFP36 Ct Values,[3],26.643
same,ZHX3 Ct Values,[3],26.305
same,ZNF2B1 Ct Values,[3],23.857
same,ACTB ΔCT (B2M),[3]; normalized to B2M,−4.319
same,ADARB1 ΔCT (B2M),[3]; normalized to B2M,12.068
same,AFF1 ΔCT (B2M),[3]; normalized to B2M,10.702
same,AK2 ΔCT (B2M),[3]; normalized to B2M,1.827
same,AMPD3 ΔCT (B2M),[3]; normalized to B2M,8.507
same,ANGPTL4 ΔCT (B2M),[3]; normalized to B2M,12.960
same,ANXA4 ΔCT (B2M),[3]; normalized to B2M,5.814
same,ARID5B ΔCT (B2M),[3]; normalized to B2M,9.061
same,ASPH ΔCT (B2M),[3]; normalized to B2M,4.690
same,ATF4 ΔCT (B2M),[3]; normalized to B2M,1.460
same,B2M ΔCT (B2M),[3]; normalized to B2M,0.000
same,BCL6 ΔCT (B2M),[3]; normalized to B2M,3.492
same,CEBPA ΔCT (B2M),[3]; normalized to B2M,9.753
same,CEBPB ΔCT (B2M),[3]; normalized to B2M,7.477
same,CREB1 ΔCT (B2M),[3]; normalized to B2M,4.662
same,CREB3L4 ΔCT (B2M),[3]; normalized to B2M,6.992
same,CREB3 ΔCT (B2M),[3]; normalized to B2M,7.305
same,CYB561 ΔCT (B2M),[3]; normalized to B2M,17.857
same,DDIT4 ΔCT (B2M),[3]; normalized to B2M,6.962
same,DUSP1 ΔCT (B2M),[3]; normalized to B2M,12.153
same,EHD3 ΔCT (B2M),[3]; normalized to B2M,7.621
same,FKBP5 ΔCT (B2M),[3]; normalized to B2M,3.736
same,FOSL2 ΔCT (B2M),[3]; normalized to B2M,13.784
same,GAPDH ΔCT (B2M),[3]; normalized to B2M,−1.354
same,GDPD1 ΔCT (B2M),[3]; normalized to B2M,11.796
same,GOT1 ΔCT (B2M),[3]; normalized to B2M,6.159
same,H6PD ΔCT (B2M),[3]; normalized to B2M,8.979
same,HNRPLL ΔCT (B2M),[3]; normalized to B2M,4.617
same,HPRT1 ΔCT (B2M),[3]; normalized to B2M,1.468
same,IL1RN ΔCT (B2M),[3]; normalized to B2M,13.035
same,IL6R ΔCT (B2M),[3]; normalized to B2M,14.660
same,IL10 ΔCT (B2M),[3]; normalized to B2M,13.358
same,KLF9 ΔCT (B2M),[3]; normalized to B2M,13.378
same,KLF13 ΔCT (B2M),[3]; normalized to B2M,5.389
same,LOX ΔCT (B2M),[3]; normalized to B2M,16.238
same,MERTK ΔCT (B2M),[3]; normalized to B2M,15.505
same,MT2A ΔCT (B2M),[3]; normalized to B2M,18.078
same,NFKBIA ΔCT (B2M),[3]; normalized to B2M,4.507
same,NR3C1 ΔCT (B2M),[3]; normalized to B2M,4.617
same,PDCD7 ΔCT (B2M),[3]; normalized to B2M,5.976
same,PDP1 ΔCT (B2M),[3]; normalized to B2M,7.028
same,PER1 ΔCT (B2M),[3]; normalized to B2M,8.563
same,PER2 ΔCT (B2M),[3]; normalized to B2M,5.633
same,PIK3R1 ΔCT (B2M),[3]; normalized to B2M,5.514
same,PLEKHF1 ΔCT (B2M),[3]; normalized to B2M,9.832
same,POU2F1 ΔCT (B2M),[3]; normalized to B2M,6.695
same,POU2F2 ΔCT (B2M),[3]; normalized to B2M,5.951
same,RASA3 ΔCT (B2M),[3]; normalized to B2M,5.130
same,RGS2 ΔCT (B2M),[3]; normalized to B2M,6.440
same,RHOB ΔCT (B2M),[3]; normalized to B2M,8.682
same,RHOJ ΔCT (B2M),[3]; normalized to B2M,17.383
same,RPLP0 ΔCT (B2M),[3]; normalized to B2M,−2.326
same,SESN1 ΔCT (B2M),[3]; normalized to B2M,8.333
same,SGK1 ΔCT (B2M),[3]; normalized to B2M,6.211
same,SLC10A6 ΔCT (B2M),[3]; normalized to B2M,17.913
same,SLC19A2 ΔCT (B2M),[3]; normalized to B2M,11.450
same,SLC22A5 ΔCT (B2M),[3]; normalized to B2M,11.116
same,SNTA1 ΔCT (B2M),[3]; normalized to B2M,7.856
same,SPHK1 ΔCT (B2M),[3]; normalized to B2M,8.657
same,SPSB1 ΔCT (B2M),[3]; normalized to B2M,6.986
same,STAT5A ΔCT (B2M),[3]; normalized to B2M,6.128
same,STAT5B ΔCT (B2M),[3]; normalized to B2M,5.134
same,TBL1XR1 ΔCT (B2M),[3]; normalized to B2M,2.699
same,TNF ΔCT (B2M),[3]; normalized to B2M,4.578
same,TNFAIP3 ΔCT (B2M),[3]; normalized to B2M,8.530
same,TSC22D3 ΔCT (B2M),[3]; normalized to B2M,9.724
same,USP2 ΔCT (B2M),[3]; normalized to B2M,4.287
same,USP54 ΔCT (B2M),[3]; normalized to B2M,8.642
same,VDR ΔCT (B2M),[3]; normalized to B2M,10.367
same,VLDLR ΔCT (B2M),[3]; normalized to B2M,13.757
same,ZFP36 ΔCT (B2M),[3]; normalized to B2M,7.496
same,ZHX3 ΔCT (B2M),[3]; normalized to B2M,7.158
same,ZNF2B1 ΔCT (B2M),[3]; normalized to B2M,4.710
same,ARID5B ΔΔCT,[3]; vs DMSO,0.650
same,EHD3 ΔΔCT,[3]; vs DMSO,−0.885
same,FKBP5 ΔΔCT,[3]; vs DMSO,0.042
same,PIK3R1 ΔΔCT,[3]; vs DMSO,0.431
same,SLC19A2 ΔΔCT,[3]; vs DMSO,−1.143
same,USP54 ΔΔCT,[3]; vs DMSO,−0.064
same,maximum reduction in Compound 44 IC50 with Prednisolone,[4]; WSU-DLCL2 (FIG. 3A),24 fold
same,potency enhancement of Compound 44 at biologically relevant concentration of Dexamethasone,"[4]; WSU-DLCL2, 100 nM Dexamethasone",15 fold
same,potency enhancement of Compound 44 at biologically relevant concentration of Prednisolone,"[4]; WSU-DLCL2, 1 μM Prednisolone",7 fold
